Experimental data taken from patent US20240209022A1, “NOVEL PEPTIDE HAVING ANTI-INFLAMMATORY AND TISSUE REGENERATIVE ACTIONS” (KOREA RESEARCH INSTITUTE OF BIOSCIENCE AND BIOTECHNOLOGY, priority 2020, published 2024).

Legend:
[1] = tested on: ConA-induced acute hepatitis model; assay: ConA-induced acute hepatitis model; format: in vivo, C57BL/6J mice; settings: vs PBS buffer group; for ALT / AST: plasma, 9 hours after ConA
Experimental: An acute hepatitis model was induced by dissolving ConA (concanavalin A) in PBS buffer (phosphate buffered saline) at 1.5 mg/mL and injecting the solution into 8-week-old specific pathogen free (SPF) male C57BL/6J mice through the tail vein in proportion to the mouse body weight based on 100 μL/10 g. Amuc_1409 or PEP001, PEP002, PEP003, PEP004, or PEP005 was dissolved in PBS buffer at a concentration of 6.7 μM from 3 days before ConA administration, and PEP007, PEP008, PEP009, or PEP010 was dissolved in PBS buffer at a concentration of 0.2 μg/150 μL from 3 days before ConA administration, and Amuc_1409 was injected into the mouse peritoneal cavity once a day at the same time by 210 μL and PEP001 to PEP010 by 150 μL, and intraperitoneally injected additionally one time 30 minutes before ConA injection, and the experiment was terminated 9 hours after ConA intravenous injection. Into the control group, PBS buffer was intravenously injected in the same manner. At the end of the experiment 9 hours after ConA intravenous injection, blood was collected from the orbital venous plexus using a heparin-treated capillary tube, and the collected blood was immediately centrifuged at 10,000 rpm (4° C.) for 10 minutes to separate plasma and then subjected to the analysis of alanine aminotransferase (ALT) and aspartate aminotransferase (AST), which are indicators of liver damage, using an automatic blood biochemical analyzer (Beckman Coulter AU480 automatic analyzer, Beckman Coulter). The liver was harvested, a part of the liver was fixed in 10% NBF at room temperature for 24 hours or more and then embedded in paraffin to prepare a 5 μm-thick section, and the section was stained with hematoxylin and eosin (H&E).

[2] = tested on: C57BL/6 mice with telogen hair; assay: Hair growth promotion on shaved dorsal skin; format: in vivo; settings: vs vehicle
Experimental: In order to examine the hair growth promoting efficacy, 8-week-old C57BL/6 mice with telogen hair having pink dorsal skin were used. The mice were anesthetized, then the hair on the back of the mouse was removed using an electric hair clipper for animals. Amuc_1409 was dissolved in vehicle (50% ethanol, 20% propylene glycol, 30% water) at a concentration of 3.2 μM and then applied to the skin of the hair-removed site by 200 μL per animal using a pipette once a day for 21 days, and PEP006 to PEP013 were each dissolved in vehicle (50% ethanol, 20% propylene glycol, 30% water) at a concentration of 30 μM and then applied to the skin of the hair-removed site by 200 μL per animal using a pipette once a day for 28 days. For the control group, the same volume of vehicle (50% ethanol, 20% propylene glycol, 30% water) was applied to the skin.
Skin color and hair density were visually observed, scored according to the scoring criteria in Table 5, and graphed (Table 5).
After the experiment, the test animals were sacrificed, then the skin tissue of the mouse was fixed in 10% NBF at room temperature for 24 hours or more, and then embedded in paraffin to prepare a 5 μm-thick section, and the section was stained with (H&E) hematoxylin and eosin. The histological changes of the hair follicle tissue in the H&E-stained tissue sections were observed under an optical microscope. The number and depth of hair follicles and the thicknesses of dermis and subcutis were measured under an optical microscope, and the hair growth cycle was evaluated. The number of hair follicles was calculated by counting the number of hair follicles present in the subcutaneous tissue under a 100-magnification optical microscope. Changes in the depth of hair follicles and the thicknesses of dermis and subcutis were measured using the Image J program using a scale bar.

small intestine organoid = assay: Small intestine organoid sprouting; format: cell-based, C57BL/6J mice; settings: 16 nM on days 0, 2, 4; day 5 of culture; vs PBS buffer
Experimental: In order to establish a small intestine organoid model, the small intestine of 15-week-old male C57BL/6J mice was cut longitudinally from the proximal end to the distal end, and cut transversely into about 5 mm long pieces. The small intestine tissue thus obtained was washed with refrigerated PBS containing 1% penicillin. Thereafter, the washed small intestine tissue was treated with dissociation buffer and filtered through a cell strainer to isolate crypts. The isolated crypt was cultured in Matrigel and Organoid Growth Medium (Intesticult™) mixed at a ratio of 1:1, Matrigel was solidified at 37° C. for 20 minutes in a 12 well plate, and then medium (500 μL/well) was added. The medium was replaced after 4 days, and subculture was performed on day 7.
For novel peptide screening, organoids 3D cultured in medium and Matrigel support were dispensed into 3 wells per group using a 12-well plate and 50 organoids per well. On days 0, 2, and 4 of culture, the organoids were treated with novel tetrapeptides PEP006, PEP007, PEP008, PEP009, and PEP010 and novel tripeptides PEP011, PEP012, and PEP013 at a concentration of 16 nM as described above, and the number of lobes of sprouted organoids on day 5 of culture was examined and analyzed for comparison. The control group was treated with PBS buffer in the same manner.

[3] = tested on: TPA-induced dermatitis model; assay: TPA-induced dermatitis (ear) model; format: in vivo, C57BL/6J mice; settings: vs PBS buffer group; for ear thickness / ear weight / erythema and swelling of the ear (macro photograph): 26 hours after TPA application
Experimental: As a dermatitis model, one day before sample application, both ears of 8-week-old male C57BL/6J mice were shaved, 2.5 μg of TPA (12-otetrade-canoyl-phorbol-13-acetate) dissolved in 25 μL acetone was applied to the right ear of the mouse to induce skin swelling and inflammation, and the left ear was coated with 25 μL of acetone, which is a TPA solvent, and used as a negative control. From 3 days before TPA application, Amuc_1409 or PEP001 to PEP013 were each dissolved in PBS buffer at a concentration of 6.7 μM, and then injected into the abdominal cavity of mice by 150 μL per animal once a day at the same time. On day 3 (0 days) after administration of the peptide, the peptide was injected intraperitoneally one time 30 minutes before TPA application, and the drug was additionally injected intraperitoneally 3 hours after TPA injection. Into the control group, the same volume of PBS buffer was intraperitoneally injected, and the experiment was terminated 26 hours after TPA application. 26 hours after TPA application, the ear thickness was measured and photographs of both ears for each test group were taken in order to examine the degree of swelling and inflammation relief in the ears. After the test animal was sacrificed, the weight per area of the ear was measured, the ears of mice were fixed in 10% neutral buffered formalin at room temperature for 24 hours or more, and then embedded in paraffin to prepare 5 μm-thick sections, and the sections were stained with hematoxylin and eosin (H&E). The degrees of swelling of the ear and inflammatory cell infiltration were examined by observing the H&E-stained tissue section under an optical microscope.

[4] = day 28 after application, 30 μM topical

| Molecule | ALT [1] | proportion of the area where hair grew out to the total area (hair growth score) [2, 4] | number of lobes of sprouted organoids (small intestine organoid) | AST [1] | ear thickness [3] | ear weight [3] | erythema and swelling of the ear (macro photograph) [3] | further results |
| --- | --- | --- | --- | --- | --- | --- | --- | --- |
| IGAY (PEP008) | tended to decrease | tended to increase | significantly increased | – | – | – | – | – |
| AVSSI (PEP002) | significantly decreased | – | – | tended to decrease | significantly decreased | significantly decreased | significantly reduced | – |
| AQS [PEP011] | – | tended to increase | significantly increased | – | – | – | – | – |
| AGS [PEP012] | – | tended to increase | significantly increased | – | – | – | – | – |
| RGAY (PEP007) | significantly decreased | tended to increase | significantly increased | tended to decrease | – | – | – | – |
| AVSSIKGAY (PEP001) | decreased close to a significant level | – | – | decreased close to a significant level | significantly decreased | significantly decreased | significantly reduced | – |
| KGAY (PEP003) | significantly decreased | – | – | tended to decrease | significantly decreased | significantly decreased | significantly reduced | – |
| SGAY (PEP009) | tended to decrease | tended to increase | significantly increased | tended to decrease | – | – | – | – |
| AVS (AVSSIKGAY) [PEP004] | significantly decreased | – | – | tended to decrease | significantly decreased | significantly decreased | significantly reduced | – |
| AGAY (PEP006) | – | tended to increase | significantly increased | – | – | – | – | – |
| GAY [PEP005] | decreased close to a significant level | – | – | tended to decrease | significantly decreased | significantly decreased | significantly reduced | – |
| VGAY (PEP010) | significantly decreased | – | significantly increased | decreased close to a significant level | – | – | – | – |
| AIS [PEP013] | – | tended to increase | significantly increased | – | – | – | – | – |
| Amuc_1409: SEQ ID NO: 15, functional fragment obtained by eliminating the leader sequence from SEQ ID NO: 14; protein derived from Akkermansia muciniphila (protein, Amuc_1409_fragment, protein derived from Akkermansia muciniphila) IPESSVPAAAVSSIKGAYPNAGPIEWDSEMHGMERIYEAEFRINGFQFDVKIAPDGKIVRIKEEIAASSLPEAVRASVLKRYPGCRIKEAEKITEGELVRYKVEVADSRDDYDVLIAPDGNILHVDR | significantly decreased | – | – | significantly decreased | tended to decrease | significantly decreased | reduced overall | inflammatory cells infiltration into the liver and necrosis in the liver parenchyma (H&E) [1]: markedly reduced; depth of the hair follicle ([2]; H&E): significantly increased; number of hair follicles present in the subcutaneous fat layer ([2]; H&E): significantly increased; proportion of hair in the anagen phase ([2]; H&E): significantly increased; thickness of dermis ([2]; H&E): significantly increased; thickness of subcutis ([2]; H&E): significantly increased; proportion of the area where hair grew out to the total area (hair growth score) ([2]; day 21 after application, 3.2 μM topical): significantly increased; ear tissue swelling and inflammatory cell infiltration (H&E) [3]: significantly reduced |
